# Where “and” joins values, the source holds several entries; their conditions need not be identical. Identical values can stand only once.
row,melting point,Structure (SMILES)
1,-80 °C,CCCCCCOC(C)=O [hexyl_acetate]
2,270 °C,NS(=O)(=O)c1cc2c(cc1Cl)NCNS2(=O)=O [hydrochlorothiazide]
3,223 °C,CC12CCC(=O)C=C1CCC1C2C(O)CC2(C)C1CCC2(O)C(=O)CO (configuration not stated) [hydrocortisone]
4,272 °C,NS(=O)(=O)c1cc2c(cc1C(F)(F)F)NCNS2(=O)=O [hydroflumethiazide]
5,175 °C,Oc1ccc(O)cc1 [hydroquinone] [listing 1 of 2 here]
6,172 °C,Oc1ccc(O)cc1 [hydroquinone] [listing 2 of 2 here]
7,125 °C,CC(=O)Oc1ccc(OC(C)=O)cc1 [hydroquinone_diacetate]
8,76 °C,CC(C)Cc1ccc(C(C)C(=O)O)cc1 (configuration not stated) [ibuprofen]
9,130 °C,N#Cc1ccc2cc[nH]c2c1 [indole-6-carbonitrile]
10,52 °C,c1ccc2[nH]ccc2c1 [indole]
11,-31 °C,Ic1ccccc1 [iodobenzene]
12,180 °C,CCCCC1=NC2(CCCC2)C(=O)N1Cc1ccc(-c2ccccc2-c2nnn[nH]2)cc1 [irbesartan]
13,109 °C,CC(C)CB(O)O [isobutylboronic acid]
14,-65 °C,CC(C)C=O [isobutyraldehyde]
15,106 °C,Cc1cc(C(=O)NNCc2ccccc2)no1 [isocarboxazid]
16,171 °C,NNC(=O)c1ccncc1 [isoniazid]
17,157 °C,NC(=O)c1ccncc1 [isonicotinamide]
18,109 °C,"CCOC(=O)c1cccc(C(=O)O)c1 [isophthalic acid, monoethyl ester]"

row,melting point,Structure (SMILES)
1,-101 °C,CC(C)N [isopropylamine]
2,104 °C,[O-][n+]1ccc2ccccc2c1 [isoquinoline n-oxide]
3,61 °C,OC1COC2C(O)COC12 (configuration not stated) [isosorbide]
4,323 °C,"Oc1noc2nc3ccccc3nc12 [isoxazolo[4,5-b]quinoxalin-3(2H)-one]"
5,103 °C,CC(COc1ccccc1)NC(C)C(O)c1ccc(O)cc1 (configuration not stated) [isoxsuprine]
6,167 °C,C=C(CC(=O)O)C(=O)O [itaconic acid]
7,146 °C,CC(=O)N1CCN(c2ccc(OCC3COC(Cn4ccnc4)(c4ccc(Cl)cc4Cl)O3)cc2)CC1 (configuration not stated) [ketoconazole]
8,94 °C,CC(C(=O)O)c1cccc(C(=O)c2ccccc2)c1 (configuration not stated) [ketoprofen]
9,154 °C,O=c1cc(CO)occ1O [kojic acid]
10,18 °C,CC(O)C(=O)O (configuration not stated) [lactic acid]
11,10 °C,Cc1ccnc2ccccc12 [lepidine]
12,181 °C,N#Cc1ccc(C(c2ccc(C#N)cc2)n2cncn2)cc1 [letrozole]
13,-12 °C,CCCCC/C=C\C/C=C\CCCCCCCC(=O)O [linoleic acid]
14,175 °C,CC[C@H](C)C(=O)O[C@H]1C[C@@H](C)C=C2C=C[C@H](C)[C@H](CC[C@@H]3C[C@@H](O)CC(=O)O3)[C@H]21 [lovastatin]
15,174 °C,O=C(O[C@@H]1[C@H]3C(=C/[C@H](C)C1)\C=C/[C@@H]([C@@H]3CC[C@H]2OC(=O)C[C@H](O)C2)C)[C@@H](C)CC [lovastatin]
16,330 °C,O=C\1c3c(O/C(=C/1)c2ccc(O)c(O)c2)cc(O)cc3O [luteolin]
17,11 °C,Cc1cccc(O)c1 [m-Cresol]

# Second part, the molecule before the results:
row,Structure (SMILES),melting point
1,CCOC=O [ethyl_formate],-80 °C
2,CCCCCCC(=O)OCC [ethyl_heptanoate],-66 °C
3,CCOC(=O)c1cccc(C#N)c1 [ethyl_m-cyanobenzoate],56 °C
4,C=C [ethylene],-169 °C
5,CC(=O)OCCOC(C)=O [ethylene_glycol_diacetate],-41 °C
6,N#Cc1ccc(C2CCCc3cncn32)cc1 (configuration not stated) [fadrozole],117 °C
7,N=C(N)Nc1nc(CSCCC(=N)NS(N)(=O)=O)cs1 [famotidine],164 °C
8,NC(=O)OCC(COC(N)=O)c1ccccc1 [felbamate],151 °C
9,O=C(O)Cc1ccccc1Oc1ccc(Cl)cc1Cl [fenclofenac],135 °C
10,O=C(O)c1ccccc1Nc1cccc(C(F)(F)F)c1 [flufenamic acid],125 °C
11,c1ccc2c(c1)Cc1ccccc1-2 [fluorene],116 °C and 115 °C
12,O=C1OC2(OC=C(c3ccccc3)C2=O)c2ccccc21 (configuration not stated) [fluorescamine],157 °C
13,O=c1[nH]cc(F)c(=O)[nH]1 [fluorouracil],282 °C
14,CC(C(=O)O)c1ccc(-c2ccccc2)c(F)c1 (configuration not stated) [flurbiprofen],111 °C (2×) and 115 °C and 110 °C
15,O=C1CN=C(c2ccccc2F)c2cc(Cl)ccc2N1CC1CC1 [flutoprazepam],118 °C
16,NC=O [formamide],2 °C
17,NNC=O [formic acid hydrazide],57 °C
18,c1ccoc1 [furan],-85 °C
19,O=Cc1ccco1 [furfuraldehyde],-36.5 °C
20,NS(=O)(=O)c1cc(C(=O)O)c(NCc2ccco2)cc1Cl [furosemide],206 °C (2×) and 208 °C and 204 °C (2×)
21,Cl[C@H]1[C@H](Cl)[C@@H](Cl)[C@@H](Cl)[C@H](Cl)[C@H]1Cl [g-bhc(lindane)],112 °C

row,Structure (SMILES),melting point
1,Cc1ccc(C)c(OCCCC(C)(C)C(=O)O)c1 [gemfibrozil],61 °C
2,CC(C)=CCC/C(C)=C/CO [geraniol],-15 °C
3,Cc1cc(C(=O)NCCc2ccc(S(=O)(=O)NC(=O)NN3CCCCCC3)cc2)no1 [glisoxepid],189 °C
4,O=CCCCC=O [glutaraldehyde],-21 °C
5,CC(=O)OCC(COC(C)=O)OC(C)=O [glycerol triacetate],3 °C
6,OCC(O)CO [glycerol],18 °C
7,O=CC=O [glyoxal],15 °C
8,COC1=CC(=O)C[C@@H](C)[C@]12Oc1c(Cl)c(OC)cc(OC)c1C2=O [griseofulvin],219 °C
9,COc1cc(OC)c2c(c1Cl)O[C@]1(C2=O)C(OC)CC(=O)C[C@H]1C (some centres not stated) [griseofulvin],220 °C
10,O=C1CN=C(c2ccccc2)c2cc(Cl)ccc2N1CC(F)(F)F [halazepam],164 °C
11,O=C(CCCN1CCC(O)(c2ccc(Cl)cc2)CC1)c1ccc(F)cc1 [haloperidol],148 °C
12,O=C1CN2CCOC2(c2ccccc2F)c2cc(Br)ccc2N1 (configuration not stated) [haloxazolam],185 °C
13,Brc1c(Br)c(Br)c(Br)c(Br)c1Br [hexabromobenzene],306 °C
14,C[Si]1(C)O[Si](C)(C)O[Si](C)(C)O1 [hexamethylcyclotrisiloxane],65 °C
15,CCCCCC(=O)O [hexanoic acid],-1.9 °C
16,c1ccc([Si]2(c3ccccc3)O[Si](c3ccccc3)(c3ccccc3)O[Si](c3ccccc3)(c3ccccc3)O2)cc1 [hexaphenylcyclotrisiloxane],180 °C
17,c1ccc([Si](c2ccccc2)(c2ccccc2)[Si](c2ccccc2)(c2ccccc2)c2ccccc2)cc1 [hexaphenyldisilane],369 °C
18,CC(C)C#N [isobutyronitrile],-72 °C
19,N#Cc1cccc(C#N)c1 [isophthalonitrile],161 °C
20,CCC(=O)C1(c2cccc(O)c2)CCN(C)CC1 [ketobemidone],156 °C
21,O=C1Nc2ccc(Cl)cc2C(c2ccccc2Cl)=NC1O (configuration not stated) [lorazepam],166 °C

# Reference: the Bradley open melting point set (2014)
